In US6677310B1, “Ring-expanded nucleosides and nucleotides” (Nabi, priority 1999, dated 2004):

Columns and labels:
Assay type in all cases: cell-based, human
CCRF-CEM = experiment: SRB anti-cancer assay, Leukemia; settings: 48 h
SR = experiment: SRB anti-cancer assay, Leukemia; settings: 48 h
A549/ATCC = A549/ATCC (Non-Small Cell Lung Cancer), 48 h
HOP-62 = HOP-62 (Non-Small Cell Lung Cancer), 48 h
NCI-H226 = NCI-H226 (Non-Small Cell Lung Cancer), 48 h
NCI-H460 = NCI-H460 (Non-Small Cell Lung Cancer), 48 h
HCT-116 = experiment: SRB anti-cancer assay, Colon Cancer; settings: HCT-116 (Colon Cancer), 48 h
KM12 = experiment: SRB anti-cancer assay, Colon Cancer; settings: 48 h
SW-620 = experiment: SRB anti-cancer assay, Colon Cancer; settings: SW-620 (Colon Cancer), 48 h
SF-268 = experiment: SRB anti-cancer assay, CNS Cancer; settings: SF-268 (CNS Cancer), 48 h
SNB-75 = experiment: SRB anti-cancer assay, CNS Cancer; settings: SNB-75 (CNS Cancer), 48 h
MALME-3M = experiment: SRB anti-cancer assay, Melanoma; settings: MALME-3M (Melanoma), 48 h
M14 = experiment: SRB anti-cancer assay, Melanoma; settings: 48 h
UACC-257 = experiment: SRB anti-cancer assay, Melanoma; settings: UACC-257 (Melanoma), 48 h
UACC-62 = experiment: SRB anti-cancer assay, Melanoma; settings: UACC-62 (Melanoma), 48 h
OVCAR-3 = experiment: SRB anti-cancer assay, Ovarian Cancer; settings: OVCAR-3 (Ovarian Cancer), 48 h
OVCAR-4 = experiment: SRB anti-cancer assay, Ovarian Cancer; settings: OVCAR-4 (Ovarian Cancer), 48 h
OVCAR-5 = experiment: SRB anti-cancer assay, Ovarian Cancer; settings: OVCAR-5 (Ovarian Cancer), 48 h
OVCAR-8 = experiment: SRB anti-cancer assay, Ovarian Cancer; settings: OVCAR-8 (Ovarian Cancer), 48 h
786-0 = experiment: SRB anti-cancer assay, Renal Cancer; settings: 786-0 (Renal Cancer), 48 h
A498 = experiment: SRB anti-cancer assay, Renal Cancer; settings: 48 h
ACHN = experiment: SRB anti-cancer assay, Renal Cancer; settings: 48 h
CAKI-1 = experiment: SRB anti-cancer assay, Renal Cancer; settings: CAKI-1 (Renal Cancer), 48 h
SN12C = experiment: SRB anti-cancer assay, Renal Cancer; settings: 48 h
UO-31 = experiment: SRB anti-cancer assay, Renal Cancer; settings: UO-31 (Renal Cancer), 48 h
DU-145 = experiment: SRB anti-cancer assay, Prostate Cancer; settings: DU-145 (Prostate Cancer), 48 h
MDA-MB- 231/ATCC = experiment: SRB anti-cancer assay, Breast Cancer; settings: MDA-MB- 231/ATCC (Breast Cancer), 48 h
MDA-MB-435 = experiment: SRB anti-cancer assay, Breast Cancer; settings: MDA-MB-435 (Breast Cancer), 48 h
MDA-N = experiment: SRB anti-cancer assay, Breast Cancer; settings: 48 h
[1] = read-out: LC50 (the source's name)

## N=c1nc(N)c2ncn([C@@H]3O[C@H](COC(=O)c4ccccc4)[C@@H](OC(=O)c4ccccc4)[C@H]3OC(=O)c3ccccc3)c2c(N)n1 [4,8-Diamino-6H-6-imino-1(2′,3′,5′-tri-O-benzoyl-β-D-ribofuranosyl)imidazo[4,5-e][1,3]diazepine]
CCRF-CEM
  GI50: 125 nM
  TGI: 1.84 µM
CCRF-CEM; [1]
  CC50: 6.4 µM
SR
  GI50: 4.27 µM
  LC50 (concentration killing 50% of cells): > 100 µM
  TGI: >100 µM
A549/ATCC
  GI50: 6.44 µM
  TGI: 30 µM
A549/ATCC; [1]
  CC50: > 100 µM
HOP-62
  GI50: 7.64 µM
  LC50 (concentration for 50% net cell kill): 55.6 µM
  TGI: 22.7 µM
NCI-H226
  GI50: 6.89 µM
  TGI: 25.1 µM
NCI-H226; [1]
  CC50: 72.4 µM
NCI-H460
  GI50: 2520 nM
  TGI: 8.42 µM
NCI-H460; [1]
  CC50: 34.7 µM
HCT-116
  GI50: 3.76 µM
  TGI: 21.2 µM
HCT-116; [1]
  CC50: 87.5 µM
KM12
  GI50: 5.5 µM
  LC50: 53.6 µM
  TGI: 19.4 µM
SW-620
  GI50: 5.14 µM
  TGI: 29.5 µM
SW-620; [1]
  CC50: > 100 µM
SF-268
  GI50: 13.2 µM
  TGI: 31.3 µM
SF-268; [1]
  CC50: 74.2 µM
SNB-75
  GI50: 12.3 µM
  LC50 (concentration killing 50% of cells): 50.4 µM
  TGI: 24.9 µM
MALME-3M
  GI50: 3.04 µM
  LC50: 33.8 µM
  TGI: 8.07 µM
M14
  GI50: 1910 nM
  TGI: 3.54 µM
M14; [1]
  CC50: 6.54 µM
UACC-257
  GI50: 4.51 µM
  TGI: 18.3 µM
UACC-257; [1]
  CC50: 73.5 µM
UACC-62
  GI50: 15.6 µM
  TGI: 33.4 µM
UACC-62; [1]
  CC50: 71.5 µM
OVCAR-3
  GI50: 10.9 µM
  TGI: 23 µM
OVCAR-3; [1]
  CC50: 48.7 µM
OVCAR-4
  GI50: 13.8 µM
  TGI: 28 µM
OVCAR-4; [1]
  CC50: 57 µM
OVCAR-5
  GI50: 15.7 µM
  TGI: 30.1 µM
OVCAR-5; [1]
  CC50: 57.7 µM
OVCAR-8
  GI50: 4.34 µM
  LC50 (50% lethal concentration): > 100 µM
  TGI: 22.5 µM
786-0
  GI50: 15.5 µM
  TGI: 35.6 µM
786-0; [1]
  CC50: 81.5 µM
A498
  GI50: 20 µM
  TGI: 37.8 µM
A498; [1]
  CC50: 71.8 µM
ACHN
  GI50: 10.9 µM
  TGI: 23.5 µM
ACHN; [1]
  CC50: 50.7 µM
CAKI-1
  GI50: 12.1 µM
  TGI: 26.8 µM
CAKI-1; [1]
  CC50: 59.4 µM
SN12C
  GI50: 6.44 µM
  TGI: 39.4 µM
SN12C; [1]
  CC50: > 100 µM
UO-31
  GI50: 6.4 µM
  TGI: 20.6 µM
UO-31; [1]
  CC50: 51.1 µM
DU-145
  GI50: 8.79 µM
  TGI: 21.8 µM
DU-145; [1]
  CC50: 49.1 µM
MDA-MB- 231/ATCC
  GI50: 5 µM
  TGI: 22 µM
MDA-MB- 231/ATCC; [1]
  CC50: 61.6 µM
MDA-MB-435
  GI50: 14.9 µM
  TGI: 29.8 µM
MDA-MB-435; [1]
  CC50: 59.8 µM
MDA-N
  GI50: 5.88 µM
  TGI: 21.7 µM
MDA-N; [1]
  CC50: 58.6 µM
